Measurements reported in patent publication US20190137505A1 (THE ARIZONA BOARD OF REGENTS ON BEHALF OF THE UNIVERSITY OF …, priority 2015, published 2019).

Molecular target: T1, plasminogen (Pg) (Homo sapiens, UniProt P00747)
T1 construct: Glu-Pg, uPA, tPA, fibrinogen, and chromogenic substrate for Pn were purchased from Molecular Innovations (Novi, Mich.); purchased Molecular Innovations (Novi, Mich.)
Assay: Chromogenic activity assay: activation of unmodified and MG-modified Pg to plasmin by tPA, uPA or STK on a fibrin matrix
Format: biochemical
Conditions: p<0.05
Protocol: 10 μg Pg was incubated with MG (50-500 μM) in tris-buffered saline (TBS) for 24 hours at 37° C. Following modification, sample volumes were increased to 150 μL and placed in 5 kDa spin filters to reduce volume and remove excess MG from solution.
96-well plate was incubated with 200 μL of 260 nM fibrinogen in TBS for 40 min at room temperature. Fibrinogen solution was removed and replaced with 250 μL TBS containing 3% bovine serum albumin and 0.01% TWEEN for 90 minutes at 37° C. Blocking solution was removed and the plate was washed twice with solution of 50 mM Tris-HCl, 110 mM NaCl and 0.01% TWEEN (pH 7.4). 5 units/mL of thrombin and 5 mM CaCl2 in 50 mM Tris-HCl, 110 mM NaCl (pH 7.4) was added to the wells for 45 min. A high salt wash (1 M NaCl, 50 mM Tris-HCl, pH 7.4) followed by a TBS-TWEEN wash completed plate prep.
Into each well 198 μL of 10 mM HEPES/150 mM NaCl (pH 7.4) was added. Into each well, 2 μL of 25 mM chromogenic substrate for Pn (D-VLK-pNA) was added. To appropriate wells were added 2 μL of 20 μM Pg, either a 24-hour unmodified control or 24 hour 50-500 μM MG modified. Activators were added to respective wells to test activation of unmodified and modified Pg. 2 μL of each activator enzyme was utilized in appropriate wells for tPA (1.2 μM), uPA (5 μM) and STK (500 nM). Following enzyme addition, plate was immediately read on a SpectraMax M2 plate reader (Molecular Devices) every minute for 90 minutes at an absorbance of 405 nm.
Pg (10 μg) was incubated with MG (50-500 μM) in 10 mM HEPES/150 mM NaCl (pH 7.4) for 24 hours at 37° C. Following modification, sample volumes were increased to 150 μL and placed in 5 kDa spin filters to reduce volume and remove excess MG from solution. A 96-well plate was incubated with 200 μL of 260 nM fibrinogen in TBS for 40 min. at room temperature. Fibrinogen solution was removed and replaced with 250 μL TBS containing 3% bovine serum albumin and 0.01% TWEEN for 90 minutes at 37° C. Blocking solution was removed and the plate was washed twice with solution of 50 mM Tris-HCl, 110 mM NaCl and 0.01% TWEEN (pH 7.4). Thrombin (5 units/mL) and 5 mM CaCl2 in 50 mM Tris-HCl, 110 mM NaCl (pH 7.4) was added to the wells for 45 min. A high salt wash (1M NaCl, 50 mM Tris-HCl, pH 7.4) followed by a TBS-TWEEN wash completed plate prep. Into each well, 198 μL of 10 mM HEPES/150 mM NaCl (pH 7.4) and 2 μL of 25 mM chromogenic substrate for Pn (D-VLK-pNA) were added. To appropriate wells were added 2 μL of 20 μM Pg, either a 24-hour unmodified control or 24 hour 50-500 μM MG modified. Activators were added to respective wells to test activation of unmodified and modified Pg. Each activator enzyme (2 μL) was utilized in appropriate wells for tPA (12 nM), uPA (50 nM) and STK (5 nM) (Ajjan et al., 2013, Zhang et al., 2012). Following enzyme addition, plate was immediately read on a SpectraMax M2 plate reader (Molecular Devices) every minute for 90 minutes at an absorbance of 405 nm.

T1 sequence (P00747 20-810 limits assumed): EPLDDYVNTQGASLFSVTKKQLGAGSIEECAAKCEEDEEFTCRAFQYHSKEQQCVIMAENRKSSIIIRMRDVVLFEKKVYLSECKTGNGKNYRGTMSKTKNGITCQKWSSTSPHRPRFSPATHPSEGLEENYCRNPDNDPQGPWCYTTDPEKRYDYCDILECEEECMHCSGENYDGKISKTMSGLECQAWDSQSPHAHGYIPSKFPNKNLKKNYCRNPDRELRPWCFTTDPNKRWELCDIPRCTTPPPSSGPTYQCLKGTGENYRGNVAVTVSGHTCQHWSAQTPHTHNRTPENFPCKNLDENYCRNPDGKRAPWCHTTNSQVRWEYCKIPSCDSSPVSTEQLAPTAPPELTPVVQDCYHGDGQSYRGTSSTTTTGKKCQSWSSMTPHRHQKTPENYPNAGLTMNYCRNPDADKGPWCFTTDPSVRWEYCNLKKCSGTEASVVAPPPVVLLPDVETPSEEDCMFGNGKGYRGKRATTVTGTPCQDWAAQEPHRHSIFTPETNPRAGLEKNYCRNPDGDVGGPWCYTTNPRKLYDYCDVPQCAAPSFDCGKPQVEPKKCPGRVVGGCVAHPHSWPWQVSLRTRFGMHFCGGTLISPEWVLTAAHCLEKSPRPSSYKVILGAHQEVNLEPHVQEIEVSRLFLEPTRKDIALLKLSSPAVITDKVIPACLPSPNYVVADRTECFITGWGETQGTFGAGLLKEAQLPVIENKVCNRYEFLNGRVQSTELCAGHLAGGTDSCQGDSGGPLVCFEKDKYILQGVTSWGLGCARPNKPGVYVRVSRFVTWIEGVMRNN

Q: `CC(=O)C=O` [MG, Methylglyoxal] was tested. Which “time at which significant delay in activation of MG-modified Pg is detectable” value (from here on “time at which significant delay”) (STK 5 nM, Pg modified 24 hours with 100 μM MG) did it give?
A: Its value is 16 min.

Q: What about the “time at which significant delay” value (STK 5 nM, Pg modified 24 hours with 500 μM MG) of the same compound?
A: The value was 12 min.

Q: And the “time at which significant delay” value (tPA 12 nM, Pg modified 24 hours with 100 μM MG)?
A: Its value is 30 min.

Q: And the “time at which significant delay” value (tPA 12 nM, Pg modified 24 hours with 500 μM MG)?
A: The value was 28 min.

Q: And the “time at which significant delay” value (uPA 50 nM, Pg modified 24 hours with 500 μM MG)?
A: The value was 37 min.
